Laboratory results taken from patent US20100254965A1, “Adenosine Signaling in Diagnosis, Treatment, and Prevention of Priapism and Erectile Dysfunction” (BOARD OF REGENTS ,THE UNIVERSITY OF TEXAS SYSTEM, priority 2006, published 2010).

Experiments:
[1] = tested on: corpus cavernosal strips (CCS); assay: EFS-induced cAMP in CCS of ADA+ and ADA-/- mice; assay type: cell-based, mouse; settings: CCS of either ADA-/- or ADA+ mice, EFS 5V 30 Hz; MRS1706 (10 nM), ZM241385 (50 nM), L-NAME (100 μM)
Protocol: FIG. 19. EFS leads to increased cAMP and cGMP production via A2BR in ADA-deficient mice. (a-b) Corpus cavernosal strips (CCS) of the ADA−/− and ADA+ mice were isolated and treated with 10 μM phenylephrine (PE) to induce precontraction. Then CCS were treated with MRS1706 (10 nM), ZM241385 (50 nM) or L-NAME (100 μM) prior to electrical field stimulation (EFS) at 5V and 30 Hz. 60 second after nerve stimulation, the CCS were quickly frozen and cellular cAMP (a) and cGMP (b) were measured by using commercial enzyme immunoassay kit (Amersham Pharmacia). N=4. Data are expressed as mean±SE. *p<0.05, ADA deficient mice versus the control; **p<0.05, CCS of ADA-deficient mice with MRS1706 and/or L-NAME treatment versus CCS of ADA-deficient mice without treatment; ***p<0.05, CCS of the control mice with MRS1706 and/or L-NAME treatment versus CCS of the control mice without treatment.
Function experiments. […] The contractility of each isolated corpus cavernosum smooth muscle cells (CCSM) strip was measured using an isometric force transducer (AD Instrument Inc., Georgia, Vt., USA). […] The contractile responses of the strips were analysed by adding 10 μM phenylephrine to the bath, and force changes were recorded in response to drug application and to electrical field stimulation. […]

[2] = tested on: multiple animal models, including humans; settings: intracavernous injection, multiple animal models, including humans; cited from earlier work
CCS and CCSM = assay: Phenylephrine-induced myosin light chain (MLC) phosphorylation, western blot; assay type: cell-based, mouse; settings: intact penile organ culture and CCSM, PE 10 μM, adenosine 100 μM
Protocol: FIG. 18. Adenosine stimulated both cAMP and cGMP induction in corpus cavernosal smooth muscle cells (CCSM) via A2BR activation. (a) Adenosine receptor expression profile in purified primary CCSM. CCSM were purified from adult mouse penes. […] (b) CCSM were isolated and cultured from mouse penes. The cells were switched to serum-free medium and treated with different concentrations of adenosine with or without A2BR antagonist (MRS1706-10 μM), A2AR antagonist (ZM241385-50 nM) or A2AR agonist (CGS-21680-10 μM) alone for 10 min. Then cellular extracts were collected and cAMP levels were measured using an ELISA kit. […] After 10 min treatment, the cellular extracts were collected and cAMP levels were measured by using a commercial enzyme immunoassay kit (Amersham Pharmacia). […] 10 min after treatment, cellular extracts were collected and cGMP levels were measured by using a commercial enzyme immunoassay kit (Amersham Pharmacia). Data are expressed as mean±SE. *p<0.05, adenosine treated versus the control; **p<0.05, adenosine treated with MRS1706 versus the adenosine treated; ***p<0.05, CCS of A2BR-deficient mice treated with adenosine versus the CCS of wild type mice treated with adenosine. […] After 10 min treatment, the cellular extracts were collected and cAMP levels were measured by using a commercial enzyme immunoassay kit (Amersham Pharmacia). […]

SMILES | EFS-increased cAMP levels were blocked [1] | tumescence and penile erection [2] | PE-mediated MLC phosphorylation (CCS and CCSM)
CCCn1c(=O)c2[nH]c(-c3ccc(OCC(=O)Nc4ccc(C(C)=O)cc4)cc3)nc2n(CCC)c1=O [MRS1706] | completely blocked | – | –
Nc1ncnc2c1ncn2[C@@H]1O[C@H](CO)[C@@H](O)[C@H]1O [adenosine] | – | resulted in tumescence and penile erection | decreased PE-mediated MLC phosphorylation
